Source: patent US20240140986A1, “SYNTHETIC URSOLIC ACID DERIVATIVES AND METHODS OF USE THEREOF” (REATA PHARMACEUTICALS, INC., priority 2021, published 2024)
Read-outs that look alike come from different tables or passages of the source.

What was measured:
[1] = test system: Nrf2 / ARE-dependent luciferase in AREc32 reporter cell line; experiment: AREc32 luciferase reporter activation (Nrf2 induction); format: cell-based, human; conditions: for EC (2-fold): Homo sapiens, Arec32; for Relative Avg AREc32 EC2X Relative to RTA402 (fold): ratio to RTA402
Procedure, shortened: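 EC2X is the concentration raising luminescence 2-fold above DMSO-treated cells, from a nonlinear-regression dose–response fit. Compounds (0.03–1000 nM) were applied for nineteen hours, starting one day after seeding 20,000 reporter cells per well. Luciferase was read with One-Glo reagent.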

[2] = test system: IFNγ-induced NO production in RAW 264.7 cells; experiment: Nitric Oxide Suppression Assay (IFNγ-induced NO, Griess nitrite readout); format: cell-based, mouse; conditions: for IC50: Mus musculus; for Avg NO IC50 Relative to RTA402 (fold): Table 2, ratio to RTA402
Procedure, shortened: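 Nitrite, a surrogate for NO, was measured by Griess reagent (525 nm) and quantified from standards by linear regression, expressed as percent of DMSO plus IFNγ control to give IC50. RAW 264.7 cells had 2 h compound pretreatment, then 24 h with 20 ng/mL IFNγ; WST-1 checked viability.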

[3] = Table 2, concentration increasing luminescence 2-fold above vehicle, 19 h treatment, read-out: Avg AREc32 EC2X (nM) (Mean ± SD)
[4] = RAW264.7, Table 2, RAW 264.7 cells, 2 h pretreatment, 20 ng/mL interferon gamma 24 h, read-out: Avg NO IC50 (nM) (Mean ± SD)
[5] = Table 3, ursolic acid derivatives, read-out: Avg ARE EC-2X (nM) (Mean ± SD)
[6] = RAW264.7, Table 3, ursolic acid derivatives, read-out: Avg NO IC50 (nM) (Mean ± SD)
[7] = Table 3, oleanolic acid derivative analogs, read-out: Avg ARE EC-2X
[8] = RAW264.7, Table 3, oleanolic acid derivative analogs, read-out: Avg NO IC50

| IC50 [2, 4] | Avg NO IC50 Relative to RTA402 (fold) [2] | IC50 [2, 6] | Structure (SMILES) | EC (2-fold) [1, 3] | Relative Avg AREc32 EC2X Relative to RTA402 (fold) ([1]; Table 2) | EC (2-fold) [1, 5] | EC (2-fold) [1, 7] | IC50 [2, 8] |
| --- | --- | --- | --- | --- | --- | --- | --- | --- |
| 12.2 ± 3.5 nM | 3.79 ± 1.16 fold | – | C[C@@H]1[C@H]2[C@H]3C(=O)C=C4[C@@]5(C)C=C(C#N)C(=O)C(C)(C)[C@@H]5CC[C@@]4(C)[C@]3(C)CC[C@@]2(F)CC[C@H]1C [Compound T67] | 11.5 ± 1.6 nM | 0.984 ± 0.119 fold | – | – | – |
| 14.6 ± 2.2 nM | 8.03 ± 3.23 fold | – | C[C@@H]1[C@H]2[C@H]3C(=O)C=C4[C@@]5(C)C=C(C#N)C(=O)C(C)(C)[C@@H]5CC[C@@]4(C)[C@]3(C)CC[C@@]2(CC(=O)O)CC[C@H]1C [Compound T89] | 3.62 ± 1.73 nM | 0.345 ± 0.161 fold | – | – | – |
| 4.43 ± 2.68 nM | 2.75 ± 1.67 fold | – | C[C@@H]1[C@H]2[C@H]3C(=O)C=C4[C@@]5(C)C=C(C#N)C(=O)C(C)(C)[C@@H]5CC[C@@]4(C)[C@]3(C)CC[C@@]2(C=O)CC[C@H]1C [Compound T83] | 2.37 ± 0.33 nM | 0.294 ± 0.048 fold | – | – | – |
| 5.69 ± 1.93 nM | 3.06 ± 1.70 fold | – | C[C@@H]1[C@H]2[C@H]3C(=O)C=C4[C@@]5(C)C=C(C#N)C(=O)C(C)(C)[C@@H]5CC[C@@]4(C)[C@]3(C)CC[C@@]2(CC(=O)N2CCC2)CC[C@H]1C [Compound T93] | 4.24 ± 0.66 nM | 0.525 ± 0.129 fold | – | – | – |
| 1.86 ± 0.32 nM | 1.25 ± 0.21 fold | 1.86 ± 0.32 nM | C[C@@H]1[C@H]2[C@H]3C(=O)C=C4[C@@]5(C)C=C(C#N)C(=O)C(C)(C)[C@@H]5CC[C@@]4(C)[C@]3(C)CC[C@@]2(CO)CC[C@H]1C [Compound T13] | 4.95 ± 0.63 nM | 0.358 ± 0.016 fold | 4.95 ± 0.63 nM | – | – |
| 7.24 ± 0.77 nM | 2.70 ± 0.28 fold | – | C[C@@H]1[C@H]2[C@H]3C(=O)C=C4[C@@]5(C)C=C(C#N)C(=O)C(C)(C)[C@@H]5CC[C@@]4(C)[C@]3(C)CC[C@@]2(O)CC[C@H]1C [Compound T68] | 7.56 ± 0.77 nM | 0.575 ± 0.141 fold | – | – | – |
| 17.4 ± 2.5 nM | 5.79 ± 0.73 fold | 17.4 ± 2.5 nM | C[C@@H]1[C@H]2[C@H]3C(=O)C=C4[C@@]5(C)C=C(C#N)C(=O)C(C)(C)[C@@H]5CC[C@@]4(C)[C@]3(C)CC[C@@]2(Cn2ccnc2)CC[C@H]1C [Compound T51] | 15.3 ± 3.6 nM | 1.2 ± 0.1 fold | 15.3 ± 3.6 nM | – | – |
| 9.81 ± 2.79 nM | 3.18 ± 0.30 fold | 9.81 ± 2.79 nM | C[C@@H]1[C@H]2[C@H]3C(=O)C=C4[C@@]5(C)C=C(C#N)C(=O)C(C)(C)[C@@H]5CC[C@@]4(C)[C@]3(C)CC[C@@]2(Cn2ccnn2)CC[C@H]1C [Compound T50] | 8.26 ± 1.39 nM | 0.666 ± 0.148 fold | 8.26 ± 1.39 nM | – | – |

The remaining lines, values behind:

| Structure (SMILES) | IC50 [2, 4] | Avg NO IC50 Relative to RTA402 (fold) [2] | IC50 [2, 6] | EC (2-fold) [1, 3] | Relative Avg AREc32 EC2X Relative to RTA402 (fold) ([1]; Table 2) | EC (2-fold) [1, 5] | EC (2-fold) [1, 7] | IC50 [2, 8] |
| --- | --- | --- | --- | --- | --- | --- | --- | --- |
| C[C@@H]1[C@H]2[C@H]3C(=O)C=C4[C@@]5(C)C=C(C#N)C(=O)C(C)(C)[C@@H]5CC[C@@]4(C)[C@]3(C)CC[C@@]2(N2CCOC2=O)CC[C@H]1C [Compound T59] | 16 ± 5 nM | 5.03 ± 1.61 fold | 16 ± 5 nM | 15.4 ± 1.2 nM | 1.23 ± 0.26 fold | 15.4 ± 1.2 nM | – | – |
| C[C@@H]1[C@H]2[C@H]3C(=O)C=C4[C@@]5(C)C=C(C#N)C(=O)C(C)(C)[C@@H]5CC[C@@]4(C)[C@]3(C)CC[C@@]2(C(=O)N2CCC2)CC[C@H]1C [Compound T70] | 19.6 ± 6.1 nM | 8.82 ± 3.07 fold | – | 21.6 ± 1.3 nM | 1.78 ± 0.34 fold | – | – | – |
| CC1(C)CC[C@]2(Cn3ccnc3)CC[C@]3(C)[C@H](C(=O)C=C4[C@@]5(C)C=C(C#N)C(=O)C(C)(C)[C@@H]5CC[C@]43C)[C@@H]2C1 [CC51, reference compound] | – | – | – | – | – | – | 18 nM | 3.9 nM |
| C[C@H]1[C@H](C)CCC23CC[C@@]4(C)[C@]5(C)CC[C@H]6C(C)(C)C(=O)C(C#N)=C[C@]6(C)C5=CC(=O)[C@]4(OC2)[C@H]13 [Compound T12] | 6.75 ± 2.19 nM | 3.29 ± 0.81 fold | – | 9.2 ± 2.7 nM | 0.724 ± 0.074 fold | – | – | – |
| CC1(C)CC[C@]2(CNCCO)CC[C@]3(C)[C@H](C(=O)C=C4[C@@]5(C)C=C(C#N)C(=O)C(C)(C)[C@@H]5CC[C@]43C)[C@@H]2C1 [CC40, reference compound] | – | – | – | – | – | – | 21.8 nM | 7.5 nM |
| Cc1noc([C@]23CC[C@@H](C)[C@H](C)[C@H]2[C@H]2C(=O)C=C4[C@@]5(C)C6O[C@@]6(C#N)C(=O)C(C)(C)[C@@H]5CC[C@@]4(C)[C@]2(C)CC3)n1 (stereo partly drawn) [Compound T99] | 14.8 ± 4.7 nM | 5.92 ± 0.69 fold | – | 10.4 ± 0.8 nM | 0.864 ± 0.046 fold | – | – | – |
| C[C@@H]1[C@H]2[C@H]3C(=O)C=C4[C@@]5(C)C=C(C#N)C(=O)C(C)(C)[C@@H]5CC[C@@]4(C)[C@]3(C)CC[C@@]2(CNC(=O)C2CCC2)CC[C@H]1C [Compound T25] | 5.11 ± 1.69 nM | 1.49 ± 0.35 fold | – | 2.88 ± 0.13 nM | 0.259 ± 0.036 fold | – | – | – |
| C[C@@H]1[C@H]2[C@H]3C(=O)C=C4[C@@]5(C)C=C(C#N)C(=O)C(C)(C)[C@@H]5CC[C@@]4(C)[C@]3(C)CC[C@@]2(CC(=O)NC2CC2)CC[C@H]1C [Compound T92] | 5.97 ± 2.71 nM | 3.68 ± 1.63 fold | – | 4.33 ± 0.75 nM | 0.555 ± 0.181 fold | – | – | – |
| C[C@@H]1[C@H]2[C@H]3C(=O)C=C4[C@@]5(C)C=C(C#N)C(=O)C(C)(C)[C@@H]5CC[C@@]4(C)[C@]3(C)CC[C@@]2(CNC(=O)C(F)F)CC[C@H]1C [Compound T28] | 3.64 ± 1.69 nM | 1.15 ± 0.32 fold | – | 4.33 ± 1.62 nM | 0.331 ± 0.101 fold | – | – | – |
| C[C@@H]1[C@H]2[C@H]3C(=O)C=C4[C@@]5(C)C=C(C#N)C(=O)C(C)(C)[C@@H]5CC[C@@]4(C)[C@]3(C)CC[C@@]2(c2nc(CN(C)C)no2)CC[C@H]1C [Compound T8] | 3.33 ± 0.68 nM | 1.59 ± 0.20 fold | 3.33 ± 0.68 nM | 3.72 ± 0.97 nM | 0.321 ± 0.059 fold | 3.72 ± 0.97 nM | – | – |
| C[C@@H]1[C@H]2[C@H]3C(=O)C=C4[C@@]5(C)C=C(C#N)C(=O)C(C)(C)[C@@H]5CC[C@@]4(C)[C@]3(C)CC[C@@]2(CNC(=O)C(C)(F)F)CC[C@H]1C [Compound T29] | 4.21 ± 1.75 nM | 1.47 ± 0.32 fold | – | 3.88 ± 1.19 nM | 0.317 ± 0.086 fold | – | – | – |
| C[C@@H]1[C@H]2[C@H]3C(=O)C=C4[C@@]5(C)C=C(C#N)C(=O)C(C)(C)[C@@H]5CC[C@@]4(C)[C@]3(C)CC[C@@]2(CCC(=O)NC2CC2)CC[C@H]1C [Compound T81] | 2.31 ± 0.55 nM | 0.92 ± 0.27 fold | – | 3.1 ± 1.5 nM | 0.238 ± 0.072 fold | – | – | – |
| C[C@@H]1[C@H]2[C@H]3C(=O)C=C4[C@@]5(C)C=C(C#N)C(=O)C(C)(C)[C@@H]5CC[C@@]4(C)[C@]3(C)CC[C@@]2(/C=N/O)CC[C@H]1C [Compound T84] | 7.91 ± 2.32 nM | 4.07 ± 1.76 fold | – | 9.29 ± 1.52 nM | 1.14 ± 0.22 fold | – | – | – |
| CC1(C)CC[C@]2(c3nc(CO)no3)CC[C@]3(C)[C@H](C(=O)C=C4[C@@]5(C)C=C(C#N)C(=O)C(C)(C)[C@@H]5CC[C@]43C)[C@@H]2C1 [CC10, reference compound] | – | – | – | – | – | – | 3.39 nM | 2.1 nM |
| CCNC(=O)CC[C@]12CC[C@@H](C)[C@H](C)[C@H]1[C@H]1C(=O)C[C@@H]3[C@@]4(C)C=C(C#N)C(=O)C(C)(C)[C@@H]4CC[C@@]3(C)[C@]1(C)CC2 [Compound T103] | 22.1 ± 4.2 nM | 14.60 ± 0.59 fold | – | 43.1 ± 10.4 nM | 4.52 ± 0.90 fold | – | – | – |
| C[C@H]1[C@H](C)CC[C@]2(Cn3cncn3)CC[C@]3(C)C(O)(C(=O)C=C4[C@@]5(C)C=C(C#N)C(=O)C(C)(C)[C@@H]5CC[C@]43C)[C@H]12 (stereo partly drawn) [Compound T48] | 13.8 ± 1.5 nM | 3.66 ± 1.49 fold | – | 7.18 ± 1.2 nM | 0.602 ± 0.010 fold | – | – | – |
| CC1(C)CC[C@]2(CN3CCOC3=O)CC[C@]3(C)[C@H](C(=O)C=C4[C@@]5(C)C=C(C#N)C(=O)C(C)(C)[C@@H]5CC[C@]43C)[C@@H]2C1 [CC41, reference compound] | – | – | – | – | – | – | 5.12 nM | 1.7 nM |
